Experimental findings from patent US20060074244A1, “Pyridinyl substituted (1,2,3,)triazoles as inhibitors of the tgf-beta signalling pathway” (priority 2002, published 2006) are described below.

Molecules are shown by their SMILES.

The target of series [1] is T1, recombinant GST-ALK5 (residues 198-503) (Homo sapiens, UniProt P36897).
T1 construct: assays using recombinant GST-ALK5 (residues 198-503)
T1 sequence (P36897 198-503): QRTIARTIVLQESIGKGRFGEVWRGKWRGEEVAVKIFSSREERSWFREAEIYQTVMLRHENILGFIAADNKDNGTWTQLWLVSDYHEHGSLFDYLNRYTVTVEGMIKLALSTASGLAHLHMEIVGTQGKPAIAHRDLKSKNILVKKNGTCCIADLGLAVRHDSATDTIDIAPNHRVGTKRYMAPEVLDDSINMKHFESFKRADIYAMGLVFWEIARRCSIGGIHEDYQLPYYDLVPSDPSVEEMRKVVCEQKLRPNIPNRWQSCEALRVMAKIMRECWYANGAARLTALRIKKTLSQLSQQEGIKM
Kind of series: Alk5 fluorescence polarization assay. The series is classed as binding. The note with it: displacement of rhodamine green-labelled ligand, 10 nM ALK5; read-out: ALK5 receptor modulator activity (IC50). How it is done: Assay 2 (Alk5 Fluorescence Polarization Assay)
Kinase inhibitor compounds conjugated to fluorophores, can be used as fluorescent ligands to monitor ATP competitive binding of other compounds to a given kinase. The increase in depolarization of plane polarized light, caused by release of the bound ligand into solution, is measured as a polarization/anisotropy value. This protocol details the use of a rhodamine green-labelled ligand for assays using recombinant GST-ALK5 (residues 198-503).
Assay buffer components: 62.5 mM Hepes pH 7.5 (Sigma H-4034), 1 mM DTT (Sigma D-0632), 12.5 mM MgCl2 (Sigma M-9272), 1.25 mM CHAPS (Sigma C-3023). […]
ALK5 was added to assay buffer containing the above components and 1 nM of the rhodamine green-labelled ligand so that the final ALK5 concentration was 10 nM based on active site titration of the enzyme. […] The plates were read immediately on a LJL Acquest fluorescence reader (Molecular Devices, serial number AQ1048) with excitation, emission, and dichroic filters of 485 nm, 530 nm, and 505 nm, respectively. The fluorescence polarization for each well was calculated by the Acquest reader and then imported into curve fitting software for construction of concentration response curves. The normalized response was determined relative to the high controls (1 μl DMSO in column 12, rows A-D) and the low controls (1 μl of control compound in column 12, rows E-H). […]

Series [2] concerns TGF-β signalling (PAI-1 promoter-luciferase in HepG2 cells). In words: Cellular transcriptional assay (PAI-1 promoter luciferase reporter). In general terms: In a reporter assay the amount or activity of a reporter protein is the signal.
Protocol: The assay was performed in HepG2 cells stably transfected with the PAI-1 promoter (known to be a strong TGF-β responsive promoter) linked to a luciferase (firefly) reporter gene. The compounds were selected on their ability to inhibit luciferase activity in cells exposed to TGF-β. In addition, cells were transfected with a second luciferase (Renilla) gene which was not driven by a TGF-13 responsive promoter and was used as a toxicity control.
96 well microplates were seeded, using a multidrop apparatus, with the stably transfected cell line at a concentration of 35000 cells per well in 200 μl of serum-containing medium. These plates were placed in a cell incubator.
18 to 24 hours later (Day 2), cell-incubation procedure was launched. […] Each well contained only one candidate compound and its effect on the PAI-1 promoter was monitored.
Columns 11 and 12 were employed as controls. […] Column 11 was used to determine the ‘reference TGF-β induced firefly luciferase value’ against which values measured in the test wells (to quantify inhibitory activity) were compared. […]
12 to 18 hours later (day 3), the luciferase quantification procedure was launched. […] Following agitation (15 to 30 mins), luciferase activities of the plates were read in a dual-injector luminometer (BMG lumistar). […]

With `Cc1cccc(-c2[nH]nnc2-c2ccnc(-c3ccc(S(C)(=O)=O)cc3)c2)n1` [Example 1, 2-(4-Methanesulfonylphenyl)-4-(5-(6-methyl)-pyridin-2-yl-3H-[1,2,3]triazol-4-yl)-pyridine], the IC50 in series [1] was 26 nM; in series [2] (Homo sapiens, HepG2, read-out: TGF-β cellular activity), 413 nM.
The melting point is the temperature, or range, at which the solid turns liquid. For `Cc1cccc(-c2nn[nH]c2-c2ccnc(-c3ccc(CN4CCOCC4)cc3)c2)n1` [Example 4, 4-(4-{4-[5-(6-methyl-pyridin-2-yl)-3H-[1,2,3]triazol-4-yl]-pyridin-2-yl}-benzyl)-morpholine], the melting point is 110 °C.
Turning to `O=C1C=CCC1` [CPO, Cyclopentenone, reference compound], the “firefly and renilla luciferase activities (toxicity control)” value in series [2] (500 μM CPO with TGF-β, relative to TGF-β only) is on record as “around 50%”.
